Reference: PubChem BioAssay AID2305 (GlaxoSmithKline (GSK), 2010)

What follows are compounds tested on P. falciparum 3D7 growth, pLDH absorbance (assay: P. falciparum 3D7 growth inhibition, dose response, strain 3D7 (AID 2305)).
`CN1CCN(c2cc3c(cc2Cl)CCN3C(=O)Cc2ccc(Cl)c(NC(=O)Nc3cccc(C#N)c3)c2)CC1` showed an IC50 of 640 nM.
`Cc1ccc(C)c(NC(=O)CC2C(=O)N(c3ccccc3)C(=S)N2Cc2ccco2)c1` (stereo not drawn) gave an IC50 of 570 nM.
Compound `CC(=O)Oc1ccc(C(=O)Oc2ccccc2C#CC#N)cc1OC(C)=O` has an IC50 of 320 nM.
For `O=C(Nc1ccc(-c2nc3ccccc3[nH]2)cc1)c1ccc(-c2cccc([N+](=O)[O-])c2)o1`, the IC50 was 270 nM.
In the case of `C=C(C)C1CC=C(CN2CCC(N3CCc4cc(NC(=O)c5cc(C)on5)ccc43)C2)CC1` (stereo not drawn), the IC50 is reported as 710 nM.
`COc1c(C2CCN(CCCCNC(=O)c3ccc(-c4ccc(Cl)cc4)cn3)CC2)ccc2c1CCCC2` gave an IC50 of 910 nM.
`COc1ccc(NC(=O)[C@H](Cc2ccccc2)Nc2cc(C)nc(NCCN3CCCC3)n2)cc1` was tested, and the IC50 was 1390 nM.
Compound `COc1ccc2nccc([C@@H](O)CN3CCC(NCc4cc5oc(=O)[nH]c5cc4Cl)CC3)c2c1` has an IC50 of 380 nM.
`COc1ccc2ncc(C#N)c(CCN3CCC(NCc4ccc5c(c4)NC(=O)CO5)CC3)c2c1` gave an IC50 of 590 nM.
In the case of `Oc1ccc(CN2CC[C@@H](N3CCN(CCc4ccccc4)CC3)[C@H](O)C2)cc1Cl`, the IC50 is reported as 870 nM.
For `COc1ccc2ncn(-c3ccc(C(N)=O)c(OCc4ccccc4C(F)(F)F)c3)c2c1`, the IC50 was 540 nM.
`CCOc1cc(CC)ccc1C1CCN(CCN2CCC(NC(=O)c3ccc(-c4ccc(C(C)=O)cc4)cc3)CC2)CC1` gave an IC50 of 230 nM.
Work on `COc1cc(-c2cc3cc(Cl)c(Cl)cc3[nH]2)ccc1C(=O)NCCC1CCCN1C` (stereo not drawn) yielded an IC50 of 970 nM.
Work on `CS(=O)(=O)c1ccc(CCNCc2ccc(-c3ccc(CN(C(=O)C4CC(=O)c5ccccc54)C4Cc5ccccc5C4)cc3)nc2)cc1` (stereo not drawn) yielded an IC50 of 860 nM.
`Cn1cncc1C(=O)Nc1cccc(-c2cccc(-c3nc4ccccc4[nH]3)c2)c1` gave an IC50 of 640 nM.
With `O=C(NCc1ccccc1)c1ccc(C(=O)NCC2CNCCO2)cc1` (stereo not drawn) the IC50 was 1140 nM.
In the case of `CS(=O)(=O)c1cccc(-c2cnc(N)c3cc(-c4ccc5c(c4)OCO5)ccc23)c1`, the IC50 is reported as 1040 nM.
For `Cc1nc(N)nc(N)c1OCc1ccc(Cl)c(Cl)c1`, the IC50 was 130 nM.
Work on `CCN1CCC(N(Cc2ccc(-c3ccc(C(F)(F)F)cc3)cc2)C(=O)Cn2c(CCc3cccc(F)c3F)cc(=O)c3ccccc32)C1` (stereo not drawn) yielded an IC50 of 1010 nM.
For `CN1CCC(NCc2ccc(-c3cccc(S(=O)(=O)NCc4ccccc4)c3)cc2)CC1`, the IC50 was 320 nM.
`Brc1cc(Br)c2c(c1)C(NCCCNc1nc3ncccc3[nH]1)CCN2` (stereo not drawn) was tested, and the IC50 was 590 nM.
With `Cc1cc(NC(=O)c2ccco2)ccc1OC1CCN(Cc2ccccc2)CC1` the IC50 was 530 nM.
For `COc1cc(C(=O)NC2CCN(Cc3ccccc3)CC2)ccc1-c1nc2c(Cl)cc(C(F)(F)F)cc2[nH]1`, the IC50 was 670 nM.
In the case of `c1ccc2sc(Sc3ncnc4sccc34)nc2c1`, the IC50 is reported as 730 nM.
Compound `CCCCCCCCc1[nH]c(C)c(Br)c(=O)c1Br` has an IC50 of 180 nM.
Work on `COc1ccc2nccc([C@@H](O)CN3CCC(NCc4ccc5sc(=O)[nH]c5c4)CC3)c2c1` yielded an IC50 of 290 nM.
Compound `COc1cc2nc(N3CCN(C(=O)c4ccco4)CC3)nc(NCc3ccccc3)c2cc1OC` has an IC50 of 170 nM.
Work on `COc1ccc2nc(C)cc(Nc3ccc(Oc4ccc5ccccc5c4)c(Cl)c3)c2c1` yielded an IC50 of 690 nM.
In the case of `Cc1cc(OCCCN2CCC(NS(=O)(=O)c3cccc(Br)c3)CC2)c2ccccc2n1`, the IC50 is reported as 1110 nM.
Work on `CN1CCCc2cc(NC(=O)c3cc(-c4ccc(Cl)cc4)cs3)ccc2C1` yielded an IC50 of 810 nM.
With `COc1cc(Nc2nccc(N3CCC(NC(=O)c4cccc(NC(C)=O)c4)C3)n2)cc(OC)c1OC` (stereo not drawn) the IC50 was 830 nM.
`COc1ccc(C(=O)Nc2ccc3nc(N4CCCCC4)cc(C)c3c2)cc1[N+](=O)[O-]` was tested, and the IC50 was 780 nM.
For `Cc1ccnc(-n2c(C)cc(C=C3SC(=Nc4ccccc4)N(Cc4ccco4)C3=O)c2C)c1`, the IC50 was 240 nM.
Work on `CCOc1ccc(Nc2ccc3nonc3c2S(=O)(=O)Nc2ccc(OCC)cc2)cc1` yielded an IC50 of 510 nM.
Compound `CC[C@H]1CN2CC[C@H]1C[C@@H]2[C@H](O)c1ccnc2ccc(O)cc12` has an IC50 of 1040 nM.
Work on `Cc1cc(F)ccc1[C@H]1C[C@H](N2CCOCC2)CCN1C(=O)N(C)[C@@H](C)c1cc(C(F)(F)F)cc(C(F)(F)F)c1` yielded an IC50 of 760 nM.
`CC(=O)c1ccc2cc(C(=O)NC3CCC(CCN4CCc5ccc(-c6noc(C)n6)cc5CC4)CC3)[nH]c2c1` (stereo not drawn) gave an IC50 of 950 nM.
Work on `O=C1c2cc(I)ccc2SC1c1ccccc1` (stereo not drawn) yielded an IC50 of 820 nM.
Compound `CCN(CC)CCCC(C)Nc1c2ccccc2nc2ccc3ccccc3c12` (stereo not drawn) has an IC50 of 1040 nM.
For `Cc1ccc(Nc2nccc(NCC(O)c3cccc(C(F)(F)F)c3)n2)cc1` (stereo not drawn), the IC50 was 680 nM.
For `CCN(CC)CCN(Cc1ccc(-c2ccc(C(F)(F)F)cc2)cc1)C(=O)Cn1c(SCc2ccc(F)c(F)c2F)nc(=O)c2c1CCC2`, the IC50 was 1020 nM.
In the case of `CCOc1cc(C(=O)Nc2ccc3nc(N4CCN(C)CC4)cc(C)c3c2)cc(OCC)c1OCC`, the IC50 is reported as 850 nM.
Work on `O=C(NCc1ccc(Cl)cc1)c1ccc(CN2CCCN(CC3CCCCC3)CC2)cc1` yielded an IC50 of 1700 nM.
Work on `Cc1cc(C(F)(F)F)n2nc(C(=O)N(Cc3cncn3Cc3cccc(F)c3)CC3CC3)cc2n1` yielded an IC50 of 740 nM.
Compound `CN1CCC(NCc2ccc(-c3cccc(S(=O)(=O)NCCc4ccccn4)c3)cc2)CC1` has an IC50 of 990 nM.
For `Cc1ccc(OCC2CCN(c3ncc(C(=O)NC4CC4)cc3Cl)CC2)cc1`, the IC50 was 1090 nM.
`COc1cc2ccccc2c(CNCCCCCCNCc2c(OC)c(OC)cc3ccccc23)c1OC` was tested, and the IC50 was 1110 nM.
For `CS(=O)(=O)Cc1ccc(Nc2nccc(-c3c(-c4cccc(NC(=O)c5c(F)cccc5F)c4)nn4ncccc34)n2)cc1`, the IC50 was 160 nM.
Work on `O=C(N[C@H]1CCN(CCc2ccc(O[C@H]3CCNC3)cc2)C1)c1ccc(Cl)c(Cl)c1` yielded an IC50 of 830 nM.
For `CCOC(=O)C(Oc1ccc2ccccc2c1)C(=O)OCC`, the IC50 was 760 nM.
Work on `Cc1cc(N[C@@H](Cc2ccccc2)C(=O)NCCOc2ccccc2)nc(NCCc2ccccc2)n1` yielded an IC50 of 1030 nM.
`CN1CCN(c2ccnc3ccc(NC(=O)N(C)c4ccc(Cl)c(Cl)c4)cc23)CC1` showed an IC50 of 740 nM.
For `c1cncc(CCNCc2ccc(-c3ccc(-c4nc5ccccc5[nH]4)s3)cc2)c1`, the IC50 was 210 nM.
With `O=P(O)(O)Oc1c(Br)cc(Br)cc1-c1cc(Br)cc(Br)c1O` the IC50 was 170 nM.
With `C[C@H](Cc1ccc(CCc2ccc(C[C@@H](C)NC[C@H](O)c3cccc(Cl)c3)cc2)cc1)NC[C@H](O)c1cccc(Cl)c1` the IC50 was 940 nM.
For `COc1ccc(-n2nc(C(=O)NCc3ccccc3OC)c3ccccc3c2=O)cc1`, the IC50 was 220 nM.
With `CC(C)N(CC(=O)c1ccc(O)c(C(=O)O)c1)Cc1ccccc1` the IC50 was 190 nM.
For `Cc1ccc2nc(/C=C/c3cccc4cc[nH]c34)[nH]c2c1`, the IC50 was 1180 nM.
With `O=c1cc(NCCC(CNCCc2ccccc2)NCc2cc(Br)cc(Br)c2)[nH]c2ccccc12` (stereo not drawn) the IC50 was 510 nM.
`CCCc1ccc(S(=O)(=O)Nc2ccc3c(c2)CCC3)cc1` showed an IC50 of 880 nM.
For `CCN(CCCN1CCCCC1)c1cc(C)nc(Nc2ccc(C)c(Br)c2)n1`, the IC50 was 250 nM.
Compound `NC(=O)N1CCN(Cc2ccc(Br)cc2)CC1` has an IC50 of 620 nM.
`CN(C)CCOc1ccc(-c2cc(-c3ccncc3)c(-c3ccc(Cl)c(O)c3)o2)cc1` gave an IC50 of 210 nM.
`CC1(C)N=C(N)N=C(N)N1c1cc(Cl)c(Cl)cc1Cl` gave an IC50 of 180 nM.
For `NCC1CCCN1Cc1ccc(-c2ccc(-c3nc4ccc(F)cc4[nH]3)cc2)cc1` (stereo not drawn), the IC50 was 930 nM.
`CN1CCC(C(=O)N(Cc2ccc(-c3ccc(CNCCc4ccccc4)cn3)cc2)C2Cc3ccccc3C2)CC1` gave an IC50 of 1060 nM.
`Cc1cc(N2CCCC2)nc(Nc2ccc(NC(=O)C3CCCC3)cc2)n1` showed an IC50 of 1110 nM.
`CCOc1ccc2c(NN=Cc3cc(OC)c(OC)c(OC)c3)cc(C)nc2c1` gave an IC50 of 610 nM.
In the case of `COc1cc(Cc2cnc(NCCN3CCNCC3)nc2N)ccc1OCc1ccc(C(F)(F)F)cc1`, the IC50 is reported as 920 nM.
With `CN(C)CCN(C)Cc1ccc(-c2ccc(NS(=O)(=O)c3cccc4cccnc34)cc2)cc1` the IC50 was 860 nM.
`Cc1cccc(NC(=O)c2cnc(N3CCN(c4ccncc4)CC3)c(Cl)c2)c1` showed an IC50 of 680 nM.
Compound `CS(=O)(=O)c1cccc2sc(N3CCN(C(=O)c4ccc([N+](=O)[O-])o4)CC3)nc12` has an IC50 of 1240 nM.
Compound `Cc1ccccc1Cn1c(CN2CCC(C(=O)NC3CC3)CC2)cc2ccccc21` has an IC50 of 480 nM.
For `O=S(=O)(Nc1cccc(CCN2CCC(N3CCCCC3)CC2)c1)c1ccc(Oc2ccccc2)cc1`, the IC50 was 770 nM.
Compound `CC(C)C[C@@H](/C=N/N1CCOC1=O)NC(=O)[C@H](CC(C)C)NC(=O)c1ccc(F)cc1` has an IC50 of 1170 nM.
With `OC1CCCN(Cc2cccc(-c3ccc(-c4nc5ccc(F)cc5[nH]4)cc3)c2)C1` (stereo not drawn) the IC50 was 780 nM.
`NC(=O)c1cnc2cc(-c3ccoc3)ccc2c1Nc1ccc(NC(=O)Nc2ccccc2Cl)cc1` gave an IC50 of 540 nM.
`CN(CCCCCN1CCC(NC(=O)Nc2ccc(C(F)(F)F)cc2)C1)C(=O)/C=C/c1ccc(Cl)c(Cl)c1` (stereo not drawn) showed an IC50 of 770 nM.
Work on `CC1CN(CC(O)Cn2c3ccc(Br)cc3c3cc(Br)ccc32)CC(C)O1` (stereo not drawn) yielded an IC50 of 780 nM.
In the case of `COCCNCc1ncsc1-c1ccc2c(Nc3ccc(Oc4ccccc4)cc3)ccnc2c1`, the IC50 is reported as 900 nM.
Compound `CCCCCc1cnc2nc(N)nc(N)c2c1C` has an IC50 of 210 nM.
Compound `Cc1c(Cl)ccc2c(C(=O)Nc3ccncc3)cc(-c3cccnc3)nc12` has an IC50 of 780 nM.
Compound `Cc1ccc(C(=O)Nc2ccc(-c3nc4ccccc4[nH]3)cc2)cc1S(=O)(=O)N1CCOCC1` has an IC50 of 1210 nM.
`COCc1nc(-c2ccccc2)nc(N2CCN(C(=O)NC(C)C)CC2)c1Cc1ccccc1F` was tested, and the IC50 was 1000 nM.
For `CC[C@H]1CN2CC[C@H]1C[C@H]2[C@H](O)c1cc(-c2ccc(F)cc2)nc2ccc(OC)cc12`, the IC50 was 50 nM.
Compound `CS(=O)(=O)Nc1cccc(-c2cnc3[nH]cc(-c4cccc(CN)c4)c3c2)c1` has an IC50 of 1660 nM.
Work on `COc1cc(-c2nc(-c3ccccc3)c(-c3ccccc3)[nH]2)cc(OC)c1O` yielded an IC50 of 770 nM.
`CC(C)c1ccc(C=CC(=O)N2CCC(CCN3CCC(c4c[nH]c5ccccc45)CC3)CC2)cc1` was tested, and the IC50 was 1260 nM.
`C=CCc1cc(Cc2cnc(N)nc2N)cc(CCC)c1O` was tested, and the IC50 was 990 nM.
For `CC(=O)Oc1c(C(=O)C2CCC(C(C)(C)C)CC2)c(OC(C)=O)c2ccccc2c1OC(C)=O` (stereo not drawn), the IC50 was 270 nM.
For `CCCCCCCCS(=O)(=O)NCCCC1CCN(CCCCCNC(=O)C=Cc2ccc(Cl)c(Cl)c2)CC1`, the IC50 was 860 nM.
With `O=C(Cc1ccsc1)NCC(c1ccccc1Cl)c1c[nH]c2ccccc12` (stereo not drawn) the IC50 was 950 nM.
In the case of `CCOc1ccc(N2C(N)=NC(N)=NC2(C)C)cc1`, the IC50 is reported as 260 nM.
Compound `CCOc1cc(C(=O)NCCN(C(C)C)C(C)C)ccc1-c1nc2ccc(Cl)cc2[nH]1` has an IC50 of 780 nM.
Work on `Cc1cccc(C(=O)Nc2ccnc(N3CCCN(Cc4cccc(O)c4)CC3)c2)c1` yielded an IC50 of 1210 nM.
For `O=C(Nc1ccc2c(c1)CCN(C1CCC1)CC2)c1cn(-c2ccccc2)nc1-c1ccccc1`, the IC50 was 810 nM.
`CC(C)C[C@H](NC(=O)c1ccc(OCCN2CCOCC2)cc1)C(=O)N[C@H](/C=N/N1CC(=O)NC1=O)CCc1ccccc1` was tested, and the IC50 was 280 nM.
`Cc1cc(=O)c(-c2ccc(Oc3ccc(C(F)(F)F)cc3)cc2)c(C)n1O` was tested, and the IC50 was 600 nM.
